# Experimental data as given in patent publication US20130109726A1, “SUSTAINED-RELEASE THERAPEUTIC AGENT FOR HYPERTENSION AND RENAL DYSFUNCTION” (TEIJIN PHARMA LIMITED, priority 2010, published 2013).
# How the values were obtained:
# [1] = test system: adriamycin-induced nephropathy mouse model; experiment: Urine albumin excretion in adriamycin-induced nephropathy mouse model; assay type: in vivo
# Experimental: The effects of the immediate-release and sustained-release administrations of febuxostat in an adriamycin-induced nephropathy mouse model were ascertained. The adriamycin-induced nephropathy model is known as a renal dysfunction model in which lesions occur in glomerular epithelial cells and proteinuria is observed.
# Male BALB/cAnNCrlCrlj mice aged 7 weeks were subjected to quarantine for a week or more before used as subjects.
# At 8 weeks of age, a 24-hour urine collection was performed and the concentration of albumin in the collected urine was measured by ELISA. The subjects were divided into three groups, such that the amounts of albumin excretion were evenly distributed. Subsequently, the administrations were started. Group 1, a control group, was given tap water. Group 2 was given febuxostat in drinking water. Group 3 was given febuxostat by oral gavage.
# The administration in drinking water was performed by giving the subjects access to an aqueous solution of febuxostat ad libitum. In this manner, prolonged drug exposure, i.e, sustained-release administration can be accomplished, as compared to a single oral administration. On the other hand, the oral administration was performed by giving a suspension of febuxostat in 0.5% MC solution by oral gavage via a tube. The blood level of the drug rapidly increases after the administration and diclines soon. Thus, immediate-release administration can be accomplished in this manner. Following the initiation of dosing on the first day, adriamycin was given to mice via tail vein at 10 mg/kg. Then, the administrations were conducted for 5 consecutive days. A 24-hour urine collection was performed 5 days after onset of drug administration and the amount of albumin in the collected urine was measured as previously described.
# [2] = test system: spontaneously hypertensive rats (SHR); experiment: Systolic blood pressure by Tail-Cuff method in spontaneous hypertension model (SHR); assay type: in vivo, rat
# Experimental: The effects of the immediate-release and sustained-release administrations of febuxostat in a spontaneous hypertension model were ascertained. Male spontaneously hypertensive rats (SHR) aged 12 weeks were subjected to quarantine for a week or more before used as subjects. From 13 weeks of age, habituation to blood pressure measurement with a Tail-Cuff sphygmomanometer (BP-2000, Visitech systems, Napa Place, N.C., USA) was performed for two weeks. At 15 weeks of age after the completion of the habituation, blood pressure was measured, and the subjects were divided into three groups (10 subjects in each group), such that the systolic blood pressures were evenly distributed. Subsequently, the administrations were started. Group 1, a control group, was given tap water. Group 2 was given febuxostat in drinking water. Group 3 was given febuxostat by oral gavage.
# The administration in drinking water was performed by giving the subjects access to an aqueous solution of febuxostat ad libitum. In this manner, prolonged drug exposure to the blood, i.e, sustained-release administration can be accomplished, as compared to a single oral administration. On the other hand, the oral administration was performed by giving a suspension of febuxostat in 0.5% MC solution (with a concentration of febuxostat of 2 mg/mL) at 5 mL/kg by oral gavage. The blood level of the drug rapidly increases after the administration and diclines soon. Thus, immediate-release administration can be accomplished in this manner. After 18 days of administration, systolic blood pressure was measured by the Tail-Cuff method.
structure (smiles),measurement,setting,value
"Cc1nc(-c2ccc(OCC(C)C)c(C#N)c2)sc1C(=O)O [febuxostat, 2-(3-cyano-4-isobutyloxyphenyl)-4-methyl-5-thiazole carboxylic acid]",Urine albumin excretion (mean±standard error),"[1]; Group 2, sustained-release administration, 3 mg/kg/day in drinking water, Day 0",0.1 ± 0.1 mg/day
same,Urine albumin excretion (mean±standard error),"[1]; Group 2, sustained-release administration, 3 mg/kg/day in drinking water, Day 5, adriamycin 10 mg/kg i.v.",9.5 ± 3.9 mg/day
same,Urine albumin excretion (mean±standard error),"[1]; Group 3, immediate-release administration, 3 mg/kg/day oral gavage, Day 0",0.1 ± 0.1 mg/day
same,Urine albumin excretion (mean±standard error),"[1]; Group 3, immediate-release administration, 3 mg/kg/day oral gavage, Day 5, adriamycin 10 mg/kg i.v.",18.4 ± 9.7 mg/day
same,"amelioration of renal dysfunction, sustained-release versus immediate-release administration","[1]; adriamycin-induced nephropathy mice, 5 days of administration",renal dysfunction was more effectively ameliorated by administering febuxostat in a sustained-manner
same,systolic blood pressure (mean±standard error),"[2]; Group 2, sustained-release administration, 1.5 mg/kg/day in drinking water, Day 18 of dosing",199 ± 3 mmHg
same,systolic blood pressure (mean±standard error),"[2]; Group 2, sustained-release administration, 1.5 mg/kg/day in drinking water, Pre-dose",203 ± 3 mmHg
same,systolic blood pressure (mean±standard error),"[2]; Group 3, immediate-release administration, 10 mg/kg/day oral gavage, Day 18 of dosing",217 ± 3 mmHg
same,systolic blood pressure (mean±standard error),"[2]; Group 3, immediate-release administration, 10 mg/kg/day oral gavage, Pre-dose",201 ± 4 mmHg
same,"blood pressure lowering, sustained-release versus immediate-release administration","[2]; SHR, 18 days of administration",blood pressure was more strongly lowered by administering febuxostat in a sustained-release manner
